Earlier results in patent US8097259B2, “Method for prevention and treatment of Alzheimer's disease” (SunWay Biotech Co., Ltd., priority 2007, dated 2012).

Test system: Alzheimer's disease
Settings: Wolozin et al. 2000

CC[C@H](C)C(=O)O[C@H]1C[C@@H](C)C=C2C=C[C@H](C)[C@H](CC[C@@H]3C[C@@H](O)CC(=O)O3)[C@H]21 [lovastatin]
results for AD treatment among statins: best results
